Series [1] is described as follows: Metabolic stability in human liver microsomes. Particulars: read-out: Stability. In kind it is ADME, microsome. (Liver microsomes are a subcellular fraction often used to study metabolism.)
Series [2] in a line: Metabolic stability in mouse liver microsomes. In kind it is ADME, microsome. Particulars: read-out: Stability.

Take `CNC(=O)c1ccc2c(c1)OC[C@H](N1CCc3c(nn(Cc4ccccc4)c3Cl)C1=O)C(=O)N2C`: the figures for the microsomal CLint in series [1] and in series [2] were 13 µL/min/mg and under 1 µL/min/mg, respectively.

For the compound `CN1C(=O)[C@@H](N2CCc3c(nn(Cc4ccccc4)c3Cl)C2=O)COc2ccccc21`, the microsomal CLint is 101 µL/min/mg in series [1] and 100 µL/min/mg in series [2].

The record behind these values is ChEMBL document CHEMBL4020836, “Discovery of 7-Oxo-2,4,5,7-tetrahydro-6 H-pyrazolo[3,4- c]pyridine Derivatives as Potent, Orally Available, and Brain-Penetrating Receptor Interacting Protein 1 (RIP1) Kinase Inhibitors: Analysis of Structure-Kinetic Relationships” (J Med Chem, 2018).
